According to patent publication US20070155720A1, “Co-administration of dopamine-receptor binding compounds” (DarPharma, Inc., priority 2003, published 2007):

Experiments:
[1] = target: T1, D1A receptor (C-6-mD1A) (Macaca mulatta, UniProt O77680); assay: Binding, cloned D1A receptor in C-6 cells; design: species or system monkey (rhesus macaque); conditions: monkey receptor, read-out: Cloned Receptors D1A C-6 (monkey)
T1 construct: expressed in transfected cells; host or cells: C-6 glioma cells
Experimental: Cells were grown in DMEM-H medium containing 4,500 mg/l glucose, L-glutamine, 5% fetal bovine serum and 600 ng/ml G418. […] Cells were plated into 24-well plates and allowed to grow to confluence (usually 2-4 days), after which they were used for either dose-response or desensitization studies. For the binding studies, 75-cm^2 flasks of confluent cells were treated as described below. All studies (functional and receptor binding) used cells from passages 2 to 20.
Flasks of cells in the same passage were rinsed with 5 ml hypoosmotic buffer (1 mM HEPES, 2 mM EGTA, pH 7.4), and then incubated with 7 ml hypoosmotic buffer for 5 to 10 min at 4° C. Cells were then scraped off the bottom of the flask with a rubber policeman, collected into 50-ml tubes and centrifuged at 28,000×g at 4° C. for 20 min. […] Aliquots contained approximately 1 mg/ml of protein, as measured with the BCA protein assay reagent (Pierce, Rockford, Ill.). […]
For dose-response studies, data were calculated for each sample and expressed initially as pmol cAMP per mg protein per min. […] Normalized dose-response curves were analyzed by nonlinear regression with an algorithm for sigmoid curves in the curve-fitting program Prism (Graphpad Inc., San Diego, Calif.). […] For competition binding studies, the raw data (expressed in dpm) were analyzed by nonlinear regression with a sigmoid dose-response model in Prism. […]

[2] = Pharmacokinetic studies in rodents and non-human primates; assay type: in vivo
Description: […]. […] […]

[3] = target: 40 binding sites (other than the D1 site); assay: Screen for activity at 40 binding sites; conditions: 40 binding sites other than D1, all except D2 and alpha2 adrenergic; read-out: IC50 at binding sites found inactive
Description: (§1) […]. […] […].

[4] = target: T2, D4 receptor (Rattus norvegicus, UniProt P30729); assay: Binding, cloned D4 receptor in CHO cells; design: expressed in transfected cells; host or cells: CHO cells; conditions: read-out: Cloned Receptors D4 CHO (rat)
T2 sequence (P30729 1-387): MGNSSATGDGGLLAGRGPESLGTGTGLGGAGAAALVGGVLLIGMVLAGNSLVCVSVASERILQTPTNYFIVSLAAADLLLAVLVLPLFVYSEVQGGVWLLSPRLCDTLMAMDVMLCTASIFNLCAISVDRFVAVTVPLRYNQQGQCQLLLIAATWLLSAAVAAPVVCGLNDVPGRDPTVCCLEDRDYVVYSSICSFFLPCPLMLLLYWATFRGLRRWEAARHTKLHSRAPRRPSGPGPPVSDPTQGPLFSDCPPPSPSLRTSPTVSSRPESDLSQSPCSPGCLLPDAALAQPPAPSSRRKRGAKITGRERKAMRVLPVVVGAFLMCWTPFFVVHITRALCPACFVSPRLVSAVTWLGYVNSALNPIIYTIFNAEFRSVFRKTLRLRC

[5] = target: D3 receptor (Rattus norvegicus, UniProt P19020); assay: biochemical
[6] = Half-life and duration of functional activity; assay type: in vivo
[7] = tested on: monkeys; conditions: young, intact monkeys; cited from earlier work
[8] = tested on: dopamine release or reuptake; assay: Dopamine release and reuptake
Description: as §1

[9] = tested on: adenylate cyclase; assay: Stimulation of adenylate cyclase in brain tissue; assay type: biochemical; conditions: rat, monkey, and human brain tissue
Description: as §1

[10] = tested on: rats with scopolamine-induced deficits; assay: Passive avoidance in rats, scopolamine-induced amnesia; assay type: in vivo, rat
Experimental: The protocol summarized below is one of many variants of the passive avoidance procedure using scopolamine-induced amnesia (for review see Rush, Behav Neural Biol 50:255-274, 1988). This procedure is commonly used to identify drugs that may be useful in treating cognitive deficits, particularly those observed in AD. The effects of the D
Testing was conducted in standard 2-compartment rectangular passive avoidance chambers (San Diego Instruments, San Diego, Calif.) with black plexiglas sides and grid floors. The light compartment of the chambers were illuminated by a 20 W lamp located in this compartment; the dark side of the chambers will be shielded from light, except for light penetrating the opening connecting the two compartments of each chamber.
On training day, groups of 8 rats were injected with scopolamine (3.0 mg/kg, ip) or vehicle (1.0 ml/kg) 30 min prior to training. Scopolamine served as the dementing agent in this experiment. Ten min prior to training, each group of rats received a second injection of vehicle or a dose of DHX. At the end of the pretreatment interval, each rat was placed individually in the light compartment facing away from the opening between compartments. The latency for each rat to travel from the light to the dark compartment was measured up to a maximum of 300 sec; any animal not entering the dark compartment within 300 sec was discarded from the test group. Once the animal entered the dark compartment completely, a 1.0 milliampere, 3.0 sec scrambled shock was delivered to the entire grid floor. The animal was allowed to remain in the dark compartment during this 3.0 sec period or to escape to the light compartment. Each rat was then returned immediately to its home cage.
Twenty-four hr after training, each rat was tested in the same apparatus for retention of the task (to remain passively in the light compartment). […] The latency for animals to enter the dark compartment on test day (step-through latency) was recorded up to a maximum of 600 sec. Each animal was used only once in a single experiment.
A one-way analysis of variance (ANOVA) and Newman-Keuls post-hoc comparisons were used to identify significant deficits in passive avoidance responding produced by scopolamine and their reversal by DHX; a p value of less than 0.05 was used as the level of significance.

[11] = tested on: acetylcholine release in striatum and frontal cortex; assay: Acetylcholine release by in vivo microdialysis in conscious, freely-moving rats; design: species or system rat
[12] = tested on: MPTP-treated monkeys; assay: Cognitive deficits in chronic low dose MPTP-treated monkeys, delayed response task; assay type: in vivo, monkey
Description: Two adult male Macaca fascicularis monkeys (4.7 and 5.7 kg initial body weight) and 1 female Macaca nemistrina monkey (5.0 kg initial body weight) were trained to perform a delayed response task. Briefly, animals were trained and tested on delayed response while seated in a restraining chair placed inside a sound attenuating modified Wisconsin General Test Apparatus. The monkey sat behind an opaque screen that when raised, allowed access to a sliding tray that contained recessed food wells with identical sliding white Plexiglas covers that served as stimulus plaques that could be displaced by the animal to obtain rewards (e.g. raisins). Monkeys were trained to retrieve a raisin from one of the food wells after observing the experimenter bait the well. […]
Training was accomplished with a non-correction procedure, beginning with a 0 s delay and progressing to a 5 s delay. […] A response was scored a “mistake” if the monkey made its response choice to a well that was not baited with reward. […]
Compounds and/or compositions described herein are tested by dissolving in physiological saline containing 0.2% ascorbate and administering subcutaneously. Ilustratively, compounds and/or compositions described herein are used at 0.3, 0.6, and 0.9 mg/kg doses, calculated as the free base where appropriate. The order of dose administration is determined randomly. […]

[13] = target: alpha2 adrenergic receptors; assay: Binding site screen, alpha2 adrenergic receptors
Description: as §1

Sequence of D3 receptor (P19020 whole entry): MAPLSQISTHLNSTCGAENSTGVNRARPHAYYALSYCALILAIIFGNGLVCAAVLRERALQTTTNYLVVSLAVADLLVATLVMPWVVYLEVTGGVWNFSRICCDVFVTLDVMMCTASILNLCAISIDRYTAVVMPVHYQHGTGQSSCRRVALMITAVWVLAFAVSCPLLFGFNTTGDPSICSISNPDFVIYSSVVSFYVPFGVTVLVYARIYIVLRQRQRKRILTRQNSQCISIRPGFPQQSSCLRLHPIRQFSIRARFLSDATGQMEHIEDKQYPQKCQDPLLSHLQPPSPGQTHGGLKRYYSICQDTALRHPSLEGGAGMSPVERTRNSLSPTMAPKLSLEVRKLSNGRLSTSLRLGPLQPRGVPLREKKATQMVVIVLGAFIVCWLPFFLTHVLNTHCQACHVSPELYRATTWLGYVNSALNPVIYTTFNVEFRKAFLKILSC
T1 sequence (O77680 whole entry): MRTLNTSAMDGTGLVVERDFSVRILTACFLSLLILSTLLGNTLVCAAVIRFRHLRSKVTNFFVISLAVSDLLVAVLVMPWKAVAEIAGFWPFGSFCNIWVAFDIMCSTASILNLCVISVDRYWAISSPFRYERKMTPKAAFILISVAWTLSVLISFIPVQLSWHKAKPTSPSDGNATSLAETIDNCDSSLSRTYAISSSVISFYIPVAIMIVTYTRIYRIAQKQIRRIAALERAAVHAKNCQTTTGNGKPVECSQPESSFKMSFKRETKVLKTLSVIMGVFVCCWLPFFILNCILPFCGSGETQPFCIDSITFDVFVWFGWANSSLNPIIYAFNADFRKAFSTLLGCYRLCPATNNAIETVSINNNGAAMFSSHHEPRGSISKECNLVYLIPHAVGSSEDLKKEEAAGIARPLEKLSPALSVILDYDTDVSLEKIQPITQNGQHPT

Cl.Oc1cc2c(cc1O)[C@@H]1c3ccccc3CN[C@H]1CC2 (relative stereo) [Compound 6a, Trans-10,11-dihydroxy-5,6,6a,7,8,12b-hexahydrobenzo[a]phenanthridine hydrochloride]
Ki [1]: 2.2 nM
Clearance from plasma ([2]; in vivo): cleared rapidly
Blood levels ([2]; rodents and non-human primates, following iv, sc and po administration): significant blood levels
IC50 [3]: > 10000 nM
Ki [4]: 13 nM
Ki [5]: 18 nM
Functional half-life ([6]; given subcutaneously): about 3 hr
half-life ([6]; in vivo, iv, given intravenously, read-out: Half-life): ~30 min
Spatial working memory [7]: produced improvements
Releasing dopamine or blocking its reuptake [8]: inactive
Efficacy in stimulating adenylate cyclase in brain tissue [9]: full efficacy
Shape of dose-response curve in passive avoidance [10]: inverted U-shaped dose-response curve
Scopolamine-induced deficits in step-through latency ([10]; dose of 0.3 mg/kg, scopolamine 3.0 mg/kg ip): significantly improved
Increase in step-through latency ([10]; doses of 0.1 and 1.0 mg/kg, scopolamine 3.0 mg/kg ip): not statistically-significant
Deficits induced by scopolamine ([10]; narrow range of doses (0.1, 0.3, and 1.0 mg/kg ip)): significantly improved
Acetylcholine release [11]: dose-related increases
Cognitive deficits produced by chronic low dose MPTP treatment [12]: improve cognitive deficits
IC50 [13]: ~230 nM
